Measurements published in patent publication US20020156236A1, “Binding sites for phosphotyrosine binding domains” (priority 1995, published 2002).
Like-named read-outs stand apart in the source and are kept apart here. Where a SMILES comes first, the peptide text is derived from it.

Target: T1, PTB domain/c-erbB2 binding (GST-PTB domain of SHC; c-erbB2 from SKBR3 lysate) (Homo sapiens, UniProt P29353)
T1 construct: GST-PTB domain fusion proteins were expressed from recombinant baculovirus in sf9 cells; made in house; host or cells: Sf9 cells (recombinant baculovirus) for GST-PTB; c-erbB2 endogenous in SKBR3 cell lysate
T1 sequence (P29353 156-341): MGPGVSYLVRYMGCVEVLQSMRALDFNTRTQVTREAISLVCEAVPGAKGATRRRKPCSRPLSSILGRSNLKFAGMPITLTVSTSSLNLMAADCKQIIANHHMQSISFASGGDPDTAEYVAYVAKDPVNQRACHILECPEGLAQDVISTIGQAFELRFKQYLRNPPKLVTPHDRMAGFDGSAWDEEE
Assay: biochemical
Settings: for block of PTB/c-erbB2 interaction at one peptide concentration, in words: FIG. 2C, 300 nM peptides (legend says 500 nM)

[1] = approximate IC50, inhibition of PTB domain/c-erbB2 binding

Row | Compound | IC50 (Affinity (IC50)) [µM] | IC50 (Apparent Inhibition (IC50)) [µM] | IC50 [1] [µM] | further results
1 | NC(Cc1ccccc1)C(=O)NC(Cc1ccccc1)C(=O)O (stereo not drawn) |  |  |  | IC50 (Table 3, ability to block PTB domain/c-erbB2 binding, read-out: Affinity (IC50)): > 30 µM
2 | CC(C)C[C@H](NC(=O)[C@H](CC(N)=O)NC(=O)[C@H](CC(=O)O)NC(=O)[C@H](Cc1ccccc1)NC(=O)[C@H](C)N)C(=O)N[C@@H](Cc1ccc(OP(=O)(O)O)cc1)C(=O)N[C@@H](Cc1ccc(OP(=O)(O)O)cc1)C(=O)N[C@@H](Cc1c[nH]c2ccccc12)C(=O)N[C@@H](CC(=O)O)C(=O)N[C@@H](CCC(N)=O)C(=O)N[C@@H](CC(N)=O)C(=O)N[C@@H](CO)C(=O)O [AFDNL (pY) (pY) WDQNS, AFDNL(pY)(pY)WDQNS] (HELM PEPTIDE1{A.F.D.N.L.[O=C([C@H](Cc1ccc(OP(=O)(O)O)cc1)N[*:1])[*:2]].[O=C([C@H](Cc1ccc(OP(=O)(O)O)cc1)N[*:1])[*:2]].W.D.Q.N.S}$$$$V2.0) | 0.03 |  |  | 
3 | CC(C)C[C@H](NC(=O)[C@H](CC(N)=O)NC(=O)[C@H](CC(=O)O)NC(=O)[C@H](Cc1ccccc1)NC(=O)[C@H](C)N)C(=O)N[C@@H](Cc1ccc(OP(=O)(O)O)cc1)C(=O)N[C@@H](Cc1ccc(O)cc1)C(=O)N[C@@H](Cc1c[nH]c2ccccc12)C(=O)N[C@@H](CC(=O)O)C(=O)N[C@@H](CCC(N)=O)C(=O)N[C@@H](CC(N)=O)C(=O)N[C@@H](CO)C(=O)O [AFDNL (pY) YWDQNS, AFDNL(pY)YWDQNS] (HELM PEPTIDE1{A.F.D.N.L.[O=C([C@H](Cc1ccc(OP(=O)(O)O)cc1)N[*:1])[*:2]].Y.W.D.Q.N.S}$$$$V2.0; N-terminus and C-terminus assumed) | 1 |  |  | fold less effective in competition: 30 fold; inhibition of / competition for PTB domain/c-erbB2 binding, in words: strong inhibition; block of PTB/c-erbB2 interaction at one peptide concentration, in words: some inhibition
4 | CC(C)C[C@H](NC(=O)[C@H](CC(N)=O)NC(=O)[C@H](CC(=O)O)NC(=O)[C@H](Cc1ccccc1)NC(=O)[C@H](C)N)C(=O)N[C@@H](Cc1ccc(O)cc1)C(=O)N[C@@H](Cc1ccc(OP(=O)(O)O)cc1)C(=O)N[C@@H](Cc1c[nH]c2ccccc12)C(=O)N[C@@H](CC(=O)O)C(=O)N[C@@H](CCC(N)=O)C(=O)N[C@@H](CC(N)=O)C(=O)N[C@@H](CO)C(=O)O [AFDNLY (pY) WDQNS, AFDNLY(pY)WDQNS] (HELM PEPTIDE1{A.F.D.N.L.Y.[O=C([C@H](Cc1ccc(OP(=O)(O)O)cc1)N[*:1])[*:2]].W.D.Q.N.S}$$$$V2.0; N-terminus and C-terminus assumed) | 0.03 | 0.03 | ~0.03 | IC50 compared with that of AFDNL(pY)(pY)WDQNS, in words: approximately equal; block of PTB/c-erbB2 interaction at one peptide concentration, in words: completely block
5 | CC(C)C[C@H](NC(=O)[C@H](Cc1ccc(OP(=O)(O)O)cc1)NC(=O)[C@H](CCC(=O)O)NC(=O)[C@@H]1CCCN1C(=O)[C@H](CC(N)=O)NC(=O)[C@H](CCC(=O)O)NC(=O)[C@@H](NC(=O)[C@H](C)NC(=O)CNC(=O)CNC(=O)[C@H](Cc1ccccc1)NC(=O)[C@H](C)N)C(C)C)C(=O)N[C@@H](C)C(=O)N1CCC[C@H]1C(=O)N[C@@H](CCCNC(=N)N)C(=O)N[C@@H](C)C(=O)NCC(=O)N[C@H](C(=O)N[C@@H](C)C(=O)N[C@@H](CO)C(=O)N[C@@H](CCC(N)=O)C(=O)O)[C@@H](C)O [AFGGAVENPE (pY) LAPRAGTASQ, AFGGAVENPE(pY)LAPRAGTASQ] (HELM PEPTIDE1{A.F.G.G.A.V.E.N.P.E.[O=C([C@H](Cc1ccc(OP(=O)(O)O)cc1)N[*:1])[*:2]].L.A.P.R.A.G.T.A.S.Q}$$$$V2.0) |  | 1 | ~1 | 
6 | CC(C)C[C@H](NC(=O)[C@@H]1CCCN1C(=O)[C@H](C)N)C(=O)N[C@@H](C)C(=O)N[C@@H](CS)C(=O)N[C@@H](CO)C(=O)N1CCC[C@H]1C(=O)N[C@@H](CCC(N)=O)C(=O)N1CCC[C@H]1C(=O)N[C@@H](CCC(=O)O)C(=O)N[C@@H](Cc1ccc(OP(=O)(O)O)cc1)C(=O)N[C@H](C(=O)N[C@@H](CC(N)=O)C(=O)N[C@@H](CCC(N)=O)C(=O)N1CCC[C@H]1C(=O)N[C@@H](CCC(=O)O)C(=O)N[C@H](C(=O)N[C@@H](CCCNC(=N)N)C(=O)N1CCC[C@H]1C(=O)N[C@@H](CCC(N)=O)C(=O)N[C@@H](CO)C(=O)O)C(C)C)C(C)C [APLACSPQPE (pY) VNQPEVRPQS, APLACSPQPE(pY)VNQPEVRPQS] (HELM PEPTIDE1{A.P.L.A.C.S.P.Q.P.E.[O=C([C@H](Cc1ccc(OP(=O)(O)O)cc1)N[*:1])[*:2]].V.N.Q.P.E.V.R.P.Q.S}$$$$V2.0) |  | > 100 |  | 
7 | CC(C)C[C@H](NC(=O)[C@H](CCC(N)=O)NC(=O)[C@H](CC(N)=O)NC(=O)[C@H](CCC(N)=O)NC(=O)[C@H](CO)NC(=O)[C@H](Cc1ccc(OP(=O)(O)O)cc1)NC(=O)[C@H](Cc1c[nH]c2ccccc12)NC(=O)[C@H](CO)NC(=O)[C@@H](N)CC(=O)O)C(=O)N[C@@H](Cc1ccccc1)C(=O)N[C@@H](CC(=O)O)C(=O)N[C@@H](CO)C(=O)N[C@@H](Cc1ccccc1)C(=O)N[C@@H](C)C(=O)N1CCC[C@H]1C(=O)N[C@@H](CCC(=O)O)C(=O)NCC(=O)N[C@@H](Cc1ccc(OP(=O)(O)O)cc1)C(=O)N1CCC[C@H]1C(=O)N[C@@H](C)C(=O)N[C@@H](CC(N)=O)C(=O)O [DSW (pY) SQNQLFDSFAPEG (pY) PAN] (HELM PEPTIDE1{D.S.W.[O=C([C@H](Cc1ccc(OP(=O)(O)O)cc1)N[*:1])[*:2]].S.Q.N.Q.L.F.D.S.F.A.P.E.G.[O=C([C@H](Cc1ccc(OP(=O)(O)O)cc1)N[*:1])[*:2]].P.A.N}$$$$V2.0) | > 30 |  |  | 
8 | CC(C)C[C@H](NC(=O)[C@H](CCC(N)=O)NC(=O)[C@H](CC(N)=O)NC(=O)[C@H](CCC(N)=O)NC(=O)[C@H](CC(=O)O)NC(=O)[C@H](Cc1c[nH]c2ccccc12)NC(=O)[C@H](CO)NC(=O)[C@@H](N)CC(=O)O)C(=O)N[C@@H](Cc1ccccc1)C(=O)N[C@@H](CO)C(=O)N[C@@H](Cc1ccc(OP(=O)(O)O)cc1)C(=O)N[C@@H](Cc1ccc(OP(=O)(O)O)cc1)C(=O)N[C@@H](CO)C(=O)N[C@@H](Cc1ccccc1)C(=O)N[C@@H](C)C(=O)N1CCC[C@H]1C(=O)N[C@@H](CCC(=O)O)C(=O)NCC(=O)N1CCC[C@H]1C(=O)N[C@@H](C)C(=O)N[C@@H](CC(N)=O)C(=O)O [DSWDQNQLFS (pY) (pY) SFAPEGPAN] (HELM PEPTIDE1{D.S.W.D.Q.N.Q.L.F.S.[O=C([C@H](Cc1ccc(OP(=O)(O)O)cc1)N[*:1])[*:2]].[O=C([C@H](Cc1ccc(OP(=O)(O)O)cc1)N[*:1])[*:2]].S.F.A.P.E.G.P.A.N}$$$$V2.0) | > 30 |  |  | 
9 | CC(C)C[C@H](NC(=O)CNC(=O)[C@H](CC(C)C)NC(=O)[C@H](Cc1ccc(OP(=O)(O)O)cc1)NC(=O)[C@H](CCC(=O)O)NC(=O)[C@@H]1CCCN1C(=O)[C@H](CC(N)=O)NC(=O)[C@H](CCC(=O)O)NC(=O)[C@H](C)NC(=O)[C@@H](NC(=O)[C@@H]1CCCN1C(=O)[C@@H](NC(=O)CNC(=O)[C@@H](N)CCC(=O)O)[C@@H](C)O)[C@@H](C)O)C(=O)N[C@@H](CC(=O)O)C(=O)N[C@H](C(=O)N1CCC[C@H]1C(=O)N[C@H](C(=O)O)C(C)C)C(C)C [EGTPTAENPE (pY) LGLDVPV, EGTPTAENPE(pY)LGLDVPV] (HELM PEPTIDE1{E.G.T.P.T.A.E.N.P.E.[O=C([C@H](Cc1ccc(OP(=O)(O)O)cc1)N[*:1])[*:2]].L.G.L.D.V.P.V}$$$$V2.0) |  | 1 | ~1 | 
